The values that follow come from the SangsterLogP compilation.

A short description of this data set: method code SF-AS, from DOI: 10.1139/v66-154.
As a reminder, the logP is the decadic logarithm of the partition coefficient of the neutral form, usually between octanol and water. A high value points to higher lipophilicity. For `O=C1C=C(Nc2ccccc2)C(=O)c2ccccc21`, the logP was found to be 2.84.
As for `O=[N+]([O-])C=Cc1cc([N+](=O)[O-])ccc1Cl`, the figure is 2.23; as for `O=C1C=C(S(=O)(=O)c2ccccc2)C(=O)c2ccccc21`, 2.14.
On to `O=[N+]([O-])C=Cc1ccccc1`, for which the logP turned out to be 2.11.
Consider `O=C1C(Nc2ccccc2)=C(S(=O)(=O)c2ccccc2)C(=O)c2ccccc21`, for which the logP was 3.38.
On to `O=[N+]([O-])C=Cc1cccc(O)c1`, for which the logP came out at 2.07.
As for `CN(C)c1ccc(/C=C/[N+](=O)[O-])cc1`, the figure is 2.67; as for `O=C1C=C(Cl)C(=O)c2ccccc21`, 2.15.
As for `COC1=CC(=O)c2ccccc2C1=O`, the figure is 1.35.
For the compound `COC1=C(C)C(=O)c2ccccc2C1=O`, the logP turned out to be 2.14.
In the case of `O=C1C=C(c2ccccc2)C(=O)c2ccccc21` it was 4.4.
As for `CC1=C(O)c2ccccc2C(=O)C1=O`, the figure is 1.2; as for `O=[N+]([O-])/C=C/c1ccc(Cl)cc1`, 2.44; as for `Cc1ccc2c(c1)C(=O)C=CC2=O`, 2.1.
As for `CC(=O)NC1=C(Nc2ccccc2)C(=O)c2ccccc2C1=O`, the figure is 1.73; as for `CCCCSC1=CC(=O)c2ccccc2C1=O`, 3.29.
On to `COc1cc(C=C[N+](=O)[O-])ccc1O`, for which the logP worked out at 1.88.
Take `O=[N+]([O-])/C=C/c1cccc(Cl)c1`: the logP is 2.57.
As for `O=[N+]([O-])/C=C/c1cccc([N+](=O)[O-])c1`, the figure is 1.82; as for `CCCCSC1=C(NC(C)=O)C(=O)c2ccccc2C1=O`, 2.07.
In the case of `C/C(=C\c1ccccc1)[N+](=O)[O-]` it was 2.52; in that of `Cc1cc2c(cc1C)C(=O)C=CC2=O`, 2.49.
As for `O=[N+]([O-])/C=C/c1ccccc1Cl`, the figure is 2.85; as for `COc1cccc(/C=C/[N+](=O)[O-])c1`, 2.3; as for `O=C1C=CC(=O)c2ccccc21`, 1.71.
Compound `CCCCNC1=CC(=O)c2ccccc2C1=O` displayed a logP of 3.11.
As for `O=[N+]([O-])/C=C/c1ccccc1[N+](=O)[O-]`, the figure is 1.8; as for `O=[N+]([O-])/C=C/c1ccc([N+](=O)[O-])cc1`, 1.89.
Turning to `CC(=O)NC1=CC(=O)c2ccccc2C1=O`, the logP was found to be 1.29.
`CCCCNC1=C(Cl)C(=O)c2ccccc2C1=O` showed a log partition coefficient (logP) of 4.26.
As for `O=C1C(Cl)=C(Nc2ccccc2)C(=O)c2ccccc21`, the figure is 4.22; as for `O=[N+]([O-])/C=C/c1ccc(O)cc1`, 2.12.
